# Tests used:
# giant foxtail = assay: Test B pre/postemergence giant foxtail; type: in vivo, Setaria faberii
# Outline: (§1)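 Response is a visual 0-to-10 score relative to untreated plants, where 0 means no effect and 10 means complete control, taken twelve to sixteen days after application. Treatments went onto soil at planting and onto foliage of 1- to 4-leaf plants, using a surfactant-containing non-phytotoxic solvent.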
# wild oat = assay: Test B pre/postemergence wild oat; type: in vivo, Avena fatua; conditions: for Plant response rating, Wild oats: Rate 250 g/ha
# Outline: as §1
# cocklebur = assay: Test B pre/postemergence cocklebur; type: in vivo, Xanthium strumarium
# Outline: as §1
# morningglory = assay: Test B pre/postemergence morningglory; type: in vivo, Ipomoea hederacea
# Outline: as §1
# velvetleaf = assay: Test B pre/postemergence velvetleaf; type: in vivo, Abutilon theophrasti; conditions: for Plant response rating, Velvetleaf: Rate 250 g/ha
# Outline: as §1
# purple nutsedge = assay: Test B pre/postemergence purple nutsedge; type: in vivo, Cyperus rotundus
# Outline: as §1
# wheat = assay: Test B pre/postemergence wheat; type: in vivo, Triticum aestivum; conditions: for Plant response rating, Wheat: Rate 250 g/ha
# Outline: as §1
# surinam grass = assay: Test B pre/postemergence surinam grass; type: in vivo, Brachiaria decumbens
# Outline: as §1
# bedstraw = assay: Test B pre/postemergence bedstraw; type: in vivo, Galium aparine
# Outline: as §1
# soybean = assay: Test B pre/postemergence soybean; type: in vivo, Glycine max
# Outline: as §1
# rape = assay: Test B pre/postemergence rape; type: in vivo, Brassica napus
# Outline: as §1
# blackgrass = assay: Test B pre/postemergence blackgrass; type: in vivo, Alopecurus myosuroides
# Outline: as §1
# pigweed = assay: Test B pre/postemergence pigweed; type: in vivo, Amaranthus retroflexus
# Outline: as §1
# corn = assay: Test B pre/postemergence corn; type: in vivo, Zea mays
# Outline: as §1
# crabgrass = assay: Test B pre/postemergence crabgrass; type: in vivo, Digitaria sanguinalis
# Outline: as §1
# [1] = Postemergence, Rate 125 g/ha, scale of 0 to 10 where 0 is no effect and 10 is complete control
# [2] = Postemergence, Rate 250 g/ha, scale 0 to 10, 0 no effect, 10 complete control
# [3] = Preemergence, Rate 62 g/ha, scale 0 to 10 (0 no effect, 10 complete control)
# [4] = Preemergence, Rate 125 g/ha, scale 0 to 10 (0 no effect, 10 complete control)
# [5] = Preemergence, Rate 250 g/ha, scale of 0 to 10 where 0 is no effect and 10 is complete control
# [6] = Preemergence, Rate 500 g/ha, scale 0 to 10 (0 no effect, 10 complete control)
# [7] = Rate 62 g/ha, Postemergence, scale of 0 to 10 where 0 is no effect and 10 is complete control
# [8] = Rate 500 g/ha, Postemergence, scale 0 to 10, 0 no effect, 10 complete control
# [9] = Preemergence, Rate 125 g/ha, 0 is no effect, 10 is complete control
# [10] = Preemergence, scale of 0 to 10 where 0 is no effect and 10 is complete control
# [11] = Postemergence, scale 0 to 10, 0 is no effect, 10 is complete control
# [12] = Postemergence, Rate 62 g/ha, scale 0 to 10, 0 is no effect, 10 is complete control
# [13] = Rate 125 g/ha, Postemergence, scale 0 to 10, 0 no effect, 10 complete control
# [14] = Rate 250 g/ha, Postemergence, scale 0 to 10, 0 is no effect, 10 is complete control
compound,measurement,setting,value
CC(C)N(C(=O)n1oc(=O)n(C(C)(C)C)c1=O)c1ccc(Cl)cc1 [Compound 118],Giant foxtail plant response rating,giant foxtail; [1],8
same,Giant foxtail plant response rating,giant foxtail; [2],9
same,Giant foxtail plant response rating,giant foxtail; [3],9
same,"Plant response rating, Giant foxtail",giant foxtail; [4],10
same,"Plant response rating, Giant foxtail",giant foxtail; [5],10
same,Giant foxtail plant response rating,giant foxtail; [6],10
same,Giant foxtail plant response rating,giant foxtail; [7],1
same,Giant foxtail plant response rating,giant foxtail; [8],9
same,Wild oats plant response rating,wild oat; [1],0
same,Wild oats plant response rating,wild oat; [3],0
same,Wild oats plant response rating (0 to 10 scale),wild oat; [9],1
same,"Plant response rating, Wild oats",wild oat; [10],6
same,Wild oats plant response rating,wild oat; [6],6
same,Wild oats plant response rating,wild oat; [7],0
same,"Plant response rating, Wild oats",wild oat; [11],0
same,Wild oats plant response rating,wild oat; [8],2
same,Cocklebur plant response rating,cocklebur; [1],0
same,Cocklebur plant response rating,cocklebur; [2],0
same,Cocklebur plant response rating,cocklebur; [3],0
same,"Plant response rating, Cocklebur",cocklebur; [4],0
same,"Plant response rating, Cocklebur",cocklebur; [5],0
same,Cocklebur plant response rating,cocklebur; [6],0
same,Cocklebur plant response rating,cocklebur; [7],0
same,Cocklebur plant response rating,cocklebur; [8],0
same,Morningglory plant response rating,morningglory; [1],4
same,Morningglory plant response rating,morningglory; [2],5
same,Morningglory plant response rating,morningglory; [3],0
same,"Plant response rating, Morningglory",morningglory; [4],0
same,"Plant response rating, Morningglory",morningglory; [5],0
same,Morningglory plant response rating,morningglory; [6],0
same,Morningglory plant response rating,morningglory; [7],1
same,Morningglory plant response rating,morningglory; [8],7
same,Velvetleaf plant response rating,velvetleaf; [1],0
same,Velvetleaf plant response rating,velvetleaf; [3],0
same,Velvetleaf plant response rating (0 to 10 scale),velvetleaf; [9],0
same,"Plant response rating, Velvetleaf",velvetleaf; [10],0
same,Velvetleaf plant response rating,velvetleaf; [6],4
same,Velvetleaf plant response rating,velvetleaf; [7],0
same,"Plant response rating, Velvetleaf",velvetleaf; [11],0
same,Velvetleaf plant response rating,velvetleaf; [8],0
same,Nutsedge plant response rating,purple nutsedge; [1],0
same,Nutsedge plant response rating,purple nutsedge; [2],0
same,Nutsedge plant response rating,purple nutsedge; [3],0
same,"Plant response rating, Nutsedge",purple nutsedge; [4],0
same,"Plant response rating, Nutsedge",purple nutsedge; [5],0
same,Nutsedge plant response rating,purple nutsedge; [6],0
same,Nutsedge plant response rating,purple nutsedge; [7],0
same,Nutsedge plant response rating,purple nutsedge; [8],0
same,Wheat plant response rating,wheat; [1],0
same,Wheat plant response rating,wheat; [3],0
same,Wheat plant response rating (0 to 10 scale),wheat; [9],0
same,"Plant response rating, Wheat",wheat; [10],0
same,Wheat plant response rating,wheat; [6],0
same,Wheat plant response rating,wheat; [7],0
same,"Plant response rating, Wheat",wheat; [11],0
same,Wheat plant response rating,wheat; [8],2
same,B. signalgrass plant response rating,surinam grass; [12],0
same,B. signalgrass plant response rating,surinam grass; [2],2
same,B. signalgrass plant response rating,surinam grass; [3],0
same,"Plant response rating, B. signalgrass",surinam grass; [4],2
same,"Plant response rating, B. signalgrass",surinam grass; [5],3
same,B. signalgrass plant response rating,surinam grass; [6],10
same,B. signalgrass plant response rating,surinam grass; [13],0
same,B. signalgrass plant response rating,"surinam grass; Rate 500 g/ha, Postemergence, scale of 0 to 10 where 0 is no effect and 10 is complete control",9
same,Bedstraw plant response rating,bedstraw; [12],0
same,Bedstraw plant response rating,bedstraw; [2],0
same,Bedstraw plant response rating,bedstraw; [3],0
same,"Plant response rating, Bedstraw",bedstraw; [4],0
same,"Plant response rating, Bedstraw",bedstraw; [5],0
same,Bedstraw plant response rating,bedstraw; [6],0
same,Bedstraw plant response rating,bedstraw; [13],0
same,Soybean plant response rating,soybean; [1],1
same,Soybean plant response rating,soybean; [3],0
same,"Plant response rating, Soybean",soybean; [4],0
same,"Plant response rating, Soybean",soybean; [5],0
same,Soybean plant response rating,soybean; [6],0
same,Soybean plant response rating,soybean; [7],1
same,"Plant response rating, Soybean",soybean; [14],2
same,Soybean plant response rating,soybean; [8],2
same,Rape plant response rating,rape; [1],0
same,Rape plant response rating,rape; [2],0
same,Rape plant response rating,rape; [3],0
same,"Plant response rating, Rape",rape; [4],0
same,"Plant response rating, Rape",rape; [5],0
same,Rape plant response rating,rape; [6],0
same,Rape plant response rating,rape; [7],0
same,Rape plant response rating,rape; [8],0
same,Blackgrass plant response rating,blackgrass; [1],4
same,Blackgrass plant response rating,blackgrass; [2],7
same,Blackgrass plant response rating,blackgrass; [3],0
same,"Plant response rating, Blackgrass",blackgrass; [4],2
same,"Plant response rating, Blackgrass",blackgrass; [5],3
same,Blackgrass plant response rating,blackgrass; [6],7
same,Blackgrass plant response rating,blackgrass; [7],0
same,Blackgrass plant response rating,blackgrass; [8],9
same,Redroot pigweed plant response rating,pigweed; [1],0
same,Redroot pigweed plant response rating,pigweed; [3],0
same,"Plant response rating, Redroot pigweed",pigweed; [4],0
same,"Plant response rating, Redroot pigweed",pigweed; [5],2
same,Redroot pigweed plant response rating,pigweed; [6],10
same,Redroot pigweed plant response rating,pigweed; [7],0
same,"Plant response rating, Redroot pigweed",pigweed; [14],0
same,Redroot pigweed plant response rating,pigweed; [8],0
same,Corn plant response rating,corn; [1],0
same,Corn plant response rating,corn; [2],0
same,Corn plant response rating,corn; [3],0
same,"Plant response rating, Corn",corn; [4],0
same,"Plant response rating, Corn",corn; [5],0
same,Corn plant response rating,corn; [6],0
same,Corn plant response rating,corn; [7],0
same,Corn plant response rating,corn; [8],3
same,Crabgrass plant response rating,crabgrass; [1],7
same,Crabgrass plant response rating,crabgrass; [2],7
same,Crabgrass plant response rating,crabgrass; [3],7
same,"Plant response rating, Crabgrass",crabgrass; [4],9
same,"Plant response rating, Crabgrass",crabgrass; [5],10
same,Crabgrass plant response rating,crabgrass; [6],10
same,Crabgrass plant response rating,crabgrass; [7],1
same,Crabgrass plant response rating,crabgrass; [8],9

# From patent US6737383B1, “Herbicidal oxadiazolidines” (priority 1999, dated 2004)
